Results published in US20080293931A1, “Methods and compositions for the removal of nucleic acid amplification inhibitors” (priority 2006, published 2008).

Columns and labels:
[1] = Humic acid (HA) removal from aqueous commercial HA solutions by PIR compounds, fluorimetric HA determination; design: key to ε values: ε = −log(1 − efficiency); efficiency = ([HA]i − [HA]f)/[HA]i; settings: for Average Efficiency, ε / Avg Reduction Factor: PIR 1 M, aqueous humic samples seeded with E. coli DNA, HAi avg 6,500-12,300 depending on compound (Table 6 c2); for performance as PIR compound (in words): commercial humic acid solutions
Procedure: Humic solutions were in 1×TAE buffer at RT with pH˜7. […] Samples from PIR experiments utilizing these materials were diluted, using 1×TAE, to concentrations falling within the linear response region representative of the humic material used.
In this study, when samples were interrogated for humic acid concentrations via fluorimetry, known concentrations of commercial humic acids were compared to known concentrations of humic standards.
FIG. 1 compares the HA removal from samples containing DNA of interest to the molar concentration of varied PIR compounds by plotting an HA reduction factor as the initial [HA] divided by [HA] following treatment with PIR compounds. The commercially available PIR kit, from Mo-BIO, is placed on FIG. 1 for comparison and was arbitrarily assigned a molar concentration of 1 for convenience. […] The data shown in FIG. 1 were generated from varied initial [HA], ranging from ˜5,000 to 300,000 mg/L HA. These varied initial [HA] values represent a “worst case” scenario and these are in comparison to initial [HA] in extractions from problematic soils generating humic acid concentrations typically less than 5,000 mg/L.
FIG. 2 plots the data from the same experiments represented in FIG. 1, but applying a different approach for data metric. FIG. 2 plots a dimensionless HA removal efficiency (or efficacy) value versus the decade of dilution necessary for successful PCR. The efficiency of HA removal is defined in equation 1 as the initial [HA] minus the final [HA] divided by the initial [HA]. This is essentially a percent removal approach.
Efficiency=[HA]i−[HA]f/[HA]; (1)
To further discriminate efficiency values greater than 0.99, the efficiency was subtracted from the integer value of 1, and the −log was taken of 1-efficiency to generate a non-negative value indicative of HA removal efficiency with greater level of discrimination and resolution of values with high degrees of HA removal. This is described by equation 2.

E. coli DNA = assay: PCR of seeded E. coli DNA after PIR treatment of aqueous HA samples (decade of dilution necessary for successful PCR); settings: for Typical dilution decade for PCR / range of dilutions (dilution decade for PCR): PIR 1 M, aqueous humic samples seeded with E. coli DNA, HAi avg 6,500-12,300 depending on compound (Table 6 c2)
Procedure: Consideration of dilution factors for successful PCR must also be reviewed. In untreated soil extracts containing DNA of interest, successful PCR of the extracted DNA may occur when the polymerase inhibitor is diluted sufficiently such that inhibition is suppressed and PCR may occur. Typical values for the dilution decade at which PCR is successful in samples containing humic materials and DNA of interest are often around decade four (1×10^4). Accordingly, a dilution factor of 10,000 would be necessary for successful PCR in a typical soil extract/sample. This magnitude of dilution may also impact PCR sensitivity for DNA/species already present at low concentrations and result in not identifying an organism that was present in the original sample extract.
Using this approach for presenting the HA removal data allows for the determination of a PIR compound's effectiveness for HA removal (ε) and compatibility for application in PCR systems via dilution data for PCR.

[2] = 0.1M DTPB in phosphate buffer, 30 days storage, 4 C., dark, HA avg 50,300 mg/L
[3] = 0.1M DTPB in phosphate buffer, 30 days storage, 25 C., dark, HA avg 50,300 mg/L
[4] = 0.1M DTPB in phosphate buffer, 30 days storage, 25 C., light, HA avg 50,300 mg/L
[5] = 0.1M DTPB in phosphate buffer, 30 days storage, −20 C., dark, HA avg 50,300 mg/L
[6] = 1.0M DTPB in phosphate buffer, 30 days storage, 4 C., dark, HA avg 50,300 mg/L
[7] = 1.0M DTPB in phosphate buffer, 30 days storage, 25 C., dark, HA avg 50,300 mg/L
[8] = 1.0M DTPB in phosphate buffer, 30 days storage, 25 C., light, HA avg 50,300 mg/L
[9] = 1.0M DTPB in phosphate buffer, 30 days storage, −20 C., dark, HA avg 50,300 mg/L
[10] = 2M DTPB in phosphate buffer, 30 days storage, 4 C., dark, HA avg 50,300 mg/L
[11] = 2M DTPB in phosphate buffer, 30 days storage, 25 C., dark, HA avg 50,300 mg/L
[12] = 2M DTPB in phosphate buffer, 30 days storage, 25 C., light, HA avg 50,300 mg/L
[13] = 2M DTPB in phosphate buffer, 30 days storage, −20 C., dark, HA avg 50,300 mg/L
[14] = 1M BRT in phosphate buffer, 19 days storage, 4 C., dark, HA avg 10,200 mg/L
[15] = 1M BRT in phosphate buffer, 19 days storage, 25 C., dark, HA avg 10,200 mg/L
[16] = 1M BRT in phosphate buffer, 19 days storage, 25 C., light, HA avg 10,200 mg/L
[17] = 1M BRT in phosphate buffer, 19 days storage, −20 C., dark, HA avg 10,200 mg/L

## O=C(C[n+]1ccsc1)C[n+]1ccsc1 [DTPB, 1,3-Dithiazole-2-Propanone Dibromide]
[1]; [2]
  HA reduction factor: 5
  ε values: 0.70
[1]; [3]
  HA reduction factor: 6
  ε values: 0.76
[1]; [4]
  HA reduction factor: 6
  ε values: 0.75
[1]; [5]
  HA reduction factor: 7
  ε values: 0.87
[1]; [6]
  HA reduction factor: 143
  ε values: 2.16
[1]; [7]
  HA reduction factor: 160
  ε values: 2.20
[1]; [8]
  HA reduction factor: 194
  ε values: 2.29
[1]; [9]
  HA reduction factor: 114
  ε values: 2.06
[1]; [10]
  HA reduction factor: 64
  ε values: 1.81
[1]; [11]
  HA reduction factor: 99
  ε values: 1.99
[1]; [12]
  HA reduction factor: 107
  ε values: 2.03
[1]; [13]
  HA reduction factor: 50
  ε values: 1.70
[1]
  Average Efficiency, ε: 2.18
  Avg Reduction Factor: 153
  performance as PIR compound (in words): poor performance
E. coli DNA; [2]
  Decade of dilution: 2
E. coli DNA; [3]
  Decade of dilution: 2
E. coli DNA; [4]
  Decade of dilution: 2
E. coli DNA; [5]
  Decade of dilution: 2
E. coli DNA; [6]
  Decade of dilution: 1
E. coli DNA; [7]
  Decade of dilution: 1
E. coli DNA; [8]
  Decade of dilution: 1
E. coli DNA; [9]
  Decade of dilution: 1
E. coli DNA; [10]
  Decade of dilution: 1
E. coli DNA; [11]
  Decade of dilution: 1
E. coli DNA; [12]
  Decade of dilution: 1
E. coli DNA; [13]
  Decade of dilution: 1
E. coli DNA
  Typical dilution decade for PCR: 2
  range of dilutions (dilution decade for PCR): 1-2

## 1-thiazole-2-propanone bromide [BAT]
[1]
  Average Efficiency, ε: 0.51
  Avg Reduction Factor: 3
  performance as PIR compound (in words): poor performance
E. coli DNA
  Typical dilution decade for PCR: 4
  range of dilutions (dilution decade for PCR): 3-4

## Bromothiazole [BRT]
[1]; [14]
  ε values: 1.99
[1]; [15]
  ε values: 2.45
[1]; [16]
  ε values: 2.18
[1]; [17]
  ε values: 1.36
[1]; 1M BRT stored at room temperature, ambient lighting
  increase of PIR ability (HA reduction factor) on day 19 versus day zero: ~3 factor
[1]; 1M BRT stored at room temperature, kept in the dark
  increase of PIR ability (HA reduction factor) on day 19: greater than 2 factor
[1]
  Average Efficiency, ε: 2.21
  Avg Reduction Factor: 199
E. coli DNA; [14]
  Decade of dilution: 0
E. coli DNA; [15]
  Decade of dilution: 0
E. coli DNA; [16]
  Decade of dilution: 0
E. coli DNA; [17]
  Decade of dilution: 0
E. coli DNA
  Typical dilution decade for PCR: 0
  range of dilutions (dilution decade for PCR): 0-3
E. coli DNA; aqueous HA samples seeded with E. coli DNA
  PCR products imaged after gel electrophoresis (band intensity): weak

## CC(=O)C[n+]1ccsc1
[1]
  performance as PIR compound (in words): did not perform well
